Source: ChEMBL document CHEMBL1124634, “Synthesis and antirhinovirus activity of 6-(dimethylamino)-2-(trifluoromethyl)-9-(substituted benzyl)-9H-purines” (J Med Chem, 1989)

Tested on: Human rhinovirus sp.
Assay: Antiviral activity against rhinoviral 12 serotype in a plaque inhibition assay using monolayers of M-HeLa cells
Format: functional, organism-based
Conditions: not given
Molecule COc1ccc(Cn2cnc3c(N(C)C)nc(C(F)(F)F)nc32)cc1C has an IC50 of 4.1 µM. Molecule Cc1ccc(Cn2cnc3c(N(C)C)nc(C(F)(F)F)nc32)cc1C has an IC50 of 4 µM. Cc1ccccc1Cn1cnc2c(N(C)C)nc(C(F)(F)F)nc21 gave an IC50 of 6.5 µM.

Tested on: Human rhinovirus sp.
Assay: Percent inhibitory activity at 8 uM against rhinoviral 13 serotype in a plaque inhibition assay using monolayers of M-HeLa cells
Format: functional
Conditions: not given
COc1ccc(Cn2cnc3c(N(C)C)nc(C(F)(F)F)nc32)cc1C showed an Inhibition of 12%. Molecule Cc1ccccc1Cn1cnc2c(N(C)C)nc(C(F)(F)F)nc21 has an Inhibition of 33%.

Tested on: Human rhinovirus sp.
Assay: Percent inhibitory activity at 8 uM against rhinoviral 5 serotype in a plaque inhibition assay using monolayers of M-HeLa cells
Format: functional
Conditions: not given
Work on Cc1ccccc1Cn1cnc2c(N(C)C)nc(C(F)(F)F)nc21 yielded an Inhibition of 40%.

Tested on: Human rhinovirus sp.
Assay: Antiviral activity against rhinoviral 5 serotype in a plaque inhibition assay using monolayers of M-HeLa cells
Format: functional, organism-based
Conditions: not given
Molecule COc1ccc(Cn2cnc3c(N(C)C)nc(C(F)(F)F)nc32)cc1C has an IC50 greater than 8 µM. Cc1ccc(Cn2cnc3c(N(C)C)nc(C(F)(F)F)nc32)cc1C showed an IC50 greater than 8 µM.

Tested on: Human rhinovirus sp.
Assay: Percent inhibitory activity at 8 uM against rhinoviral 21 serotype in a plaque inhibition assay using monolayers of M-HeLa cells
Format: functional
Conditions: not given
Work on COc1ccc(Cn2cnc3c(N(C)C)nc(C(F)(F)F)nc32)cc1C yielded an Inhibition of 16%. With Cc1ccc(Cn2cnc3c(N(C)C)nc(C(F)(F)F)nc32)cc1C the Inhibition was 16%. With Cc1ccccc1Cn1cnc2c(N(C)C)nc(C(F)(F)F)nc21 the Inhibition was 18%.

Tested on: Human rhinovirus sp.
Assay: Antiviral activity against rhinoviral-19 serotype in a plaque inhibition assay using monolayers of M-HeLa cells
Format: functional, organism-based
Conditions: not given
For COc1ccc(Cn2cnc3c(N(C)C)nc(C(F)(F)F)nc32)cc1C, the IC50 was 8.6 µM.

Tested on: Human rhinovirus sp.
Assay: Percent inhibitory activity at 8 uM against rhinoviral 19s erotype in a plaque inhibition assay using monolayers of M-HeLa cells
Format: functional
Conditions: not given
In the case of Cc1ccccc1Cn1cnc2c(N(C)C)nc(C(F)(F)F)nc21, the Inhibition is reported as 19%.

Tested on: not listed separately
Assay: Percent inhibitory activity at 8 uM against rhinoviral 8 serotype in a plaque inhibition assay using monolayers of M-HeLa cells
Format: functional, Homo sapiens
Conditions: not given
Cc1ccccc1Cn1cnc2c(N(C)C)nc(C(F)(F)F)nc21 showed an Inhibition of 44%.

Tested on: Human rhinovirus sp.
Assay: Antiviral activity against rhinoviral 14 serotype in a plaque inhibition assay using monolayers of M-HeLa cells
Format: functional, organism-based
Conditions: not given
COc1ccc(Cn2cnc3c(N(C)C)nc(C(F)(F)F)nc32)cc1C gave an IC50 of 7.5 µM. In the case of Cc1ccc(Cn2cnc3c(N(C)C)nc(C(F)(F)F)nc32)cc1C, the IC50 is reported as 6.6 µM.

Tested on: Human rhinovirus sp.
Assay: Antiviral activity against rhinoviral 3 serotype in a plaque inhibition assay using monolayers of M-HeLa cells
Format: functional, organism-based
Conditions: not given
Cc1ccccc1Cn1cnc2c(N(C)C)nc(C(F)(F)F)nc21 showed an IC50 of 7.5 µM.

Tested on: Human rhinovirus sp.
Assay: Percent inhibitory activity at 8 uM against rhinoviral 15 serotype in a plaque inhibition assay using monolayers of M-HeLa cells
Format: functional
Conditions: not given
Molecule Cc1ccccc1Cn1cnc2c(N(C)C)nc(C(F)(F)F)nc21 has an Inhibition of 14%.

Tested on: Human rhinovirus sp.
Assay: Antiviral activity against rhinoviral 8 serotype in a plaque inhibition assay using monolayers of M-HeLa cells
Format: functional, organism-based
Conditions: not given
With COc1ccc(Cn2cnc3c(N(C)C)nc(C(F)(F)F)nc32)cc1C the IC50 was greater than 8 µM. Cc1ccc(Cn2cnc3c(N(C)C)nc(C(F)(F)F)nc32)cc1C gave an IC50 of 5.1 µM.

Tested on: Human rhinovirus sp.
Assay: Percent inhibitory activity at 8 uM against rhinoviral 29 serotype in a plaque inhibition assay using monolayers of M-HeLa cells
Format: functional
Conditions: not given
Molecule COc1ccc(Cn2cnc3c(N(C)C)nc(C(F)(F)F)nc32)cc1C has an Inhibition of 27%.

Tested on: Human rhinovirus sp.
Assay: Antiviral activity against rhinoviral 16 serotype in a plaque inhibition assay using monolayers of M-HeLa cells
Format: functional, organism-based
Conditions: not given
Work on COc1ccc(Cn2cnc3c(N(C)C)nc(C(F)(F)F)nc32)cc1C yielded an IC50 of 1.9 µM. Cc1ccc(Cn2cnc3c(N(C)C)nc(C(F)(F)F)nc32)cc1C showed an IC50 of 0.78 µM. Cc1ccccc1Cn1cnc2c(N(C)C)nc(C(F)(F)F)nc21 showed an IC50 of 1.9 µM.

Tested on: Human rhinovirus sp.
Assay: Antiviral activity against rhinoviral 9 serotype in a plaque inhibition assay using monolayers of M-HeLa cells
Format: functional, organism-based
Conditions: not given
COc1ccc(Cn2cnc3c(N(C)C)nc(C(F)(F)F)nc32)cc1C gave an IC50 of 1.3 µM. Molecule Cc1ccc(Cn2cnc3c(N(C)C)nc(C(F)(F)F)nc32)cc1C has an IC50 of 0.65 µM. Cc1ccccc1Cn1cnc2c(N(C)C)nc(C(F)(F)F)nc21 gave an IC50 of 1.9 µM.

Tested on: Human rhinovirus sp.
Assay: Antiviral activity against rhinoviral 31 serotype in a plaque inhibition assay using monolayers of M-HeLa cells
Format: functional, organism-based
Conditions: not given
With Cc1ccc(Cn2cnc3c(N(C)C)nc(C(F)(F)F)nc32)cc1C the IC50 was 13 µM.

Tested on: Human rhinovirus sp.
Assay: Antiviral activity against rhinoviral 30 serotype in a plaque inhibition assay using monolayers of M-HeLa cells
Format: functional, organism-based
Conditions: not given
Cc1ccc(Cn2cnc3c(N(C)C)nc(C(F)(F)F)nc32)cc1C gave an IC50 of 8.1 µM. Molecule Cc1ccccc1Cn1cnc2c(N(C)C)nc(C(F)(F)F)nc21 has an IC50 of 9 µM.

Tested on: Human rhinovirus sp.
Assay: Percent inhibitory activity at 8 uM against rhinoviral 31 serotype in a plaque inhibition assay using monolayers of M-HeLa cells
Format: functional
Conditions: not given
Cc1ccccc1Cn1cnc2c(N(C)C)nc(C(F)(F)F)nc21 gave an Inhibition of 47%.

Tested on: Human rhinovirus sp.
Assay: Percent inhibitory activity at 8 uM against rhinoviral 30 serotype in a plaque inhibition assay using monolayers of M-HeLa cells
Format: functional
Conditions: not given
COc1ccc(Cn2cnc3c(N(C)C)nc(C(F)(F)F)nc32)cc1C gave an Inhibition of 20%.

Tested on: Human rhinovirus sp.
Assay: Antiviral activity against rhinoviral 19 serotype in a plaque inhibition assay using monolayers of M-HeLa cells
Format: functional, organism-based
Conditions: not given
In the case of Cc1ccc(Cn2cnc3c(N(C)C)nc(C(F)(F)F)nc32)cc1C, the IC50 is reported as 7.1 µM.

Tested on: Human rhinovirus sp.
Assay: Percent inhibitory activity at 8 uM against rhinoviral 14 serotype in a plaque inhibition assay using monolayers of M-HeLa cells
Format: functional
Conditions: not given
For Cc1ccccc1Cn1cnc2c(N(C)C)nc(C(F)(F)F)nc21, the Inhibition was 31%.

Tested on: Human rhinovirus sp.
Assay: Antiviral activity against rhinoviral-18 serotype in a plaque inhibition assay using monolayers of M-HeLa cells
Format: functional, organism-based
Conditions: not given
With Cc1ccccc1Cn1cnc2c(N(C)C)nc(C(F)(F)F)nc21 the IC50 was 7.7 µM.

Tested on: not listed separately
Assay: Percent inhibitory activity at 8 uM against rhinoviral 18 serotype in a plaque inhibition assay using monolayers of M-HeLa cells
Format: functional, Homo sapiens
Conditions: not given
Work on COc1ccc(Cn2cnc3c(N(C)C)nc(C(F)(F)F)nc32)cc1C yielded an Inhibition of 35 µM.

Tested on: not listed separately
Assay: Antiviral activity against rhinoviral 13 serotype in a plaque inhibition assay using monolayers of M-HeLa cells
Format: functional, cell-based
Conditions: Homo sapiens
Cc1ccc(Cn2cnc3c(N(C)C)nc(C(F)(F)F)nc32)cc1C showed an IC50 greater than 8 µM.

Tested on: Human rhinovirus sp.
Assay: Antiviral activity against rhinoviral-1B serotype in a plaque inhibition assay using monolayers of M-HeLa cells
Format: functional, organism-based
Conditions: not given
In the case of COc1ccc(Cn2cnc3c(N(C)C)nc(C(F)(F)F)nc32)cc1C, the IC50 is reported as 0.2 µM. Work on Cc1ccc(Cn2cnc3c(N(C)C)nc(C(F)(F)F)nc32)cc1C yielded an IC50 of 0.17 µM. In the case of Cc1ccccc1Cn1cnc2c(N(C)C)nc(C(F)(F)F)nc21, the IC50 is reported as 0.29 µM.

Tested on: Human rhinovirus sp.
Assay: Antiviral activity against rhinoviral-1A serotype in a plaque inhibition assay using monolayers of M-HeLa cells
Format: functional, organism-based
Conditions: not given
Molecule COc1ccc(Cn2cnc3c(N(C)C)nc(C(F)(F)F)nc32)cc1C has an IC50 of 2.6 µM. Cc1ccc(Cn2cnc3c(N(C)C)nc(C(F)(F)F)nc32)cc1C showed an IC50 of 1.7 µM. With Cc1ccccc1Cn1cnc2c(N(C)C)nc(C(F)(F)F)nc21 the IC50 was 8 µM.

Tested on: Human rhinovirus sp.
Assay: Percent inhibitory activity at 8 uM against rhinoviral 3 serotype in a plaque inhibition assay using monolayers of M-HeLa cells
Format: functional
Conditions: not given
COc1ccc(Cn2cnc3c(N(C)C)nc(C(F)(F)F)nc32)cc1C showed an Inhibition of 28%. With Cc1ccc(Cn2cnc3c(N(C)C)nc(C(F)(F)F)nc32)cc1C the Inhibition was 39%.

Tested on: Human rhinovirus sp.
Assay: Antiviral activity against rhinoviral 15 serotype in a plaque inhibition assay using monolayers of M-HeLa cells
Format: functional, organism-based
Conditions: not given
COc1ccc(Cn2cnc3c(N(C)C)nc(C(F)(F)F)nc32)cc1C showed an IC50 of 9 µM. Work on Cc1ccc(Cn2cnc3c(N(C)C)nc(C(F)(F)F)nc32)cc1C yielded an IC50 of 2 µM.

Tested on: Human rhinovirus sp.
Assay: Antiviral activity against rhinoviral 4 serotype in a plaque inhibition assay using monolayers of M-HeLa cells
Format: functional, organism-based
Conditions: not given
With COc1ccc(Cn2cnc3c(N(C)C)nc(C(F)(F)F)nc32)cc1C the IC50 was 5.5 µM. In the case of Cc1ccc(Cn2cnc3c(N(C)C)nc(C(F)(F)F)nc32)cc1C, the IC50 is reported as 6 µM.

Tested on: Human rhinovirus sp.
Assay: Percent inhibitory activity at 8 uM against rhinoviral 4 serotype in a plaque inhibition assay using monolayers of M-HeLa cells
Format: functional
Conditions: not given
With Cc1ccccc1Cn1cnc2c(N(C)C)nc(C(F)(F)F)nc21 the Inhibition was 22%.

Tested on: Human rhinovirus sp.
Assay: Antiviral activity against rhinoviral 2 serotype in a plaque inhibition assay using monolayers of M-HeLa cells
Format: functional, organism-based
Conditions: not given
For COc1ccc(Cn2cnc3c(N(C)C)nc(C(F)(F)F)nc32)cc1C, the IC50 was 8 µM. In the case of Cc1ccc(Cn2cnc3c(N(C)C)nc(C(F)(F)F)nc32)cc1C, the IC50 is reported as 5 µM.

Tested on: Human rhinovirus sp.
Assay: Antiviral activity against rhinoviral 29 serotype in a plaque inhibition assay using monolayers of M-HeLa cells
Format: functional, organism-based
Conditions: not given
For Cc1ccc(Cn2cnc3c(N(C)C)nc(C(F)(F)F)nc32)cc1C, the IC50 was 5 µM. For Cc1ccccc1Cn1cnc2c(N(C)C)nc(C(F)(F)F)nc21, the IC50 was 6.2 µM.

Tested on: Human rhinovirus sp.
Assay: Antiviral activity against rhinoviral 18 serotype in a plaque inhibition assay using monolayers of M-HeLa cells
Format: functional, organism-based
Conditions: not given
In the case of Cc1ccc(Cn2cnc3c(N(C)C)nc(C(F)(F)F)nc32)cc1C, the IC50 is reported as 8.2 µM.
